Laboratory results from publication PMC2820511 (Journal of medicinal chemistry, 2010).

How the values were obtained:
MtMetAP1c = MtMetAP1c (Mycobacterium tuberculosis, UniProt P9WK19); experiment: Inhibition of purified MtMetAP1c apoenzyme activated by divalent metals; format: biochemical; conditions: apoenzyme activated by Co(II), Ni(II), Mn(II) or Fe(II)
[1] = test system: MtMetAP1c-complemented E. coli cells; experiment: Inhibition of MtMetAP1c-complemented E. coli cell growth; conditions: highest concentration (1 mM) tested

MtMetAP1c, sequence (P9WK19 whole entry, looked up): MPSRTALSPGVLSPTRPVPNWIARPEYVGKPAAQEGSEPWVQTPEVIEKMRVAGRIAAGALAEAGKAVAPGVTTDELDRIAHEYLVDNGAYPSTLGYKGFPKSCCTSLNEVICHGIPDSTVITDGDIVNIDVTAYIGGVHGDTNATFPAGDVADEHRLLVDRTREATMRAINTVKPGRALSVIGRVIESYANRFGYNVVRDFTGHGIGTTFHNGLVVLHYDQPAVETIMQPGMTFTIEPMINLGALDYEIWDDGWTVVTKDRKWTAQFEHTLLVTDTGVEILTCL

## Cc1nc(-c2ccc(O)c(O)c2)cs1 [compound 1]
MtMetAP1c
  metalloform selectivity of inhibition of purified MtMetAP1c: selective for the Fe(II) form

## Cc1ccsc1-c1ccc(O)c(O)c1 [compound 2]
MtMetAP1c
  metalloform selectivity of inhibition of purified MtMetAP1c: selective for the Fe(II) form

## O=C(O)c1ccc(-c2cc(Cl)ccc2Cl)o1 [compound 3]
MtMetAP1c
  metalloform selectivity of inhibition of purified MtMetAP1c: selective for the Mn(II) form
[1]
  growth inhibition at the highest concentration tested: no inhibition

## Nc1nnc(SCc2ccc(F)cc2)[nH]1 [compound 5]
[1]
  growth inhibition at the highest concentration tested: no inhibition

## Cc1ccc(CSc2nnc(N)[nH]2)cc1 [compound 6]
[1]
  growth inhibition at the highest concentration tested: no inhibition
